Test results from EP1832586A1, “Thiazole-piperidine derivatives in treatment of diseases of liver and the pancreas” (Oridis Biomed Forschungs- und Entwicklungs GmbH, priority 2006, dated 2007).

Tests used:
Format in all cases: cell-based
HuH7 = assay: CellTiter-Glo luminescent cell viability (proliferation) assay, HuH7; settings: inhibition of HuH7 (human hepatoma) proliferation, 48 hours incubation, 10% FCS
Experimental: (§1) To practically assess the impact of the thiazole-piperidine derivatives, e.g. derivatives of piperidinyl-thiazole carboxylic acid and/or piperidinyl thiazole carboxamide, in the treatment and/or prevention of diseases according to the invention, the inhibition of cell proliferation is determined by using a luminescent cell viability assay (CellTiter-Glo®; Promega, Madison, USA). The assay is based on the relation that the ATP content is directly proportional to the number of cells present in the culture. The CellTiter-Glo® assay is performed to measure the proliferation rate of human hepatoma (HuH7, PLC/PRF/5, Hep3B, SK-Hep1), human hepatoblastoma (HepG2), human colon carcinoma (CX-2), human breast cancer (SK-Br-3), human ovarian carcinoma (HeLa) and human pancreatic carcinoma (DAN-G) cell lines. […] In particular, the compound according to formula (1) wherein R^1 is 4-isopropoxycarbonylphenyl, R^2 is 3-indolylmethyl, R^3 is hydrogen, R^4 is hydrogen, n is zero, A is a single bond, B is carbonyl, and wherein the residue R^1NR^3CO is connected to the carbon atom bound to nitrogen of the thiazole ring (compound no. XI in Table 1) inhibits proliferation of the human cell lines HepG2 and Hep3B with 10.8 and 3.5 µM, respectively.
(§2) To determine the inhibition of cell proliferation a luminescent cell viability assay (CellTiter-Glo®; Promega, Madison, USA) is implemented. The assay is based on the relation that the ATP content is directly proportional to the number of cells present in the culture (Technical Bulletin No. 228 "CellTiter-Glo® Luminescent Cell viability Assay", Revised 2/04. Promeg, Madison, USA). The CellTiter-Glo® assay is performed to measure the proliferation rate of human hepatoma (HuH7, PLC/PRF/5, Hep3B, SK-Hep1), human hepatoblastoma (HepG2), human colon carcinoma (CX-2), human breast cancer (SK-Br-3), human ovarian carcinoma (HeLa) and human pancreatic carcinoma (DAN-G) cell lines. 3000 viable cells (viability ≥ 90%) are seeded in opaque-walled 96-well plates and incubated for 24 hours in DMEM, supplemented with 2 mM glutamin. Cell proliferation is stimulated by addition of FCS to a final concentration of 10% (v/v). Simultaneously the compounds (see Table 1 and 2) are added in a concentration range of 0 to 20 µM. Triplicates are measured for each concentration. Cells and compounds (see Table 1 and 2) are incubated for a period of 48 hours in a volume of 140 µl cell culture medium (10% (v/v) FCS, 2 mM Glutamin, DMEM). The compounds according to the invention are dissolved in 60% to 100% (v/v) DMSO at a concentration of 2 mM. The final DMSO concentration under assay conditions never exceeds 1% (v/v). Throughout the assay cells are kept in a humidified incubator (95% rH) at 37°C and 5% CO2.
(§3) The final cell number is determined after 48 hour of incubation. Therefore 140 µl CellTiter-Glo®Reagent is added in each well. The contents are mixed on an orbital shaker for 2 minutes at room temperature. After subsequent incubation for additional 10 minutes at room temperature the luminescence signal is recorded within 30 min. EC50 values are calculated using the four-parametric Hill equation (Sigma Plot). Control values are: • 1) 10% (v/v) FCS, 2 mM glutamin, DMEM -> maximum cell number • 2) 2 mM glutamin, DMEM -> initial cell number

DAN-G = assay: CellTiter-Glo luminescent cell viability (proliferation) assay, DAN-G; settings: DAN-G (human pancreatic carcinoma) proliferation, 48 hours incubation, 10% FCS
Experimental: as §1, §2, §3

CX-2 = assay: CellTiter-Glo luminescent cell viability (proliferation) assay, CX-2; settings: CX-2 (human colon carcinoma) proliferation, 48 hours incubation, 10% FCS
Experimental: as §1, §2, §3

HeLa = assay: CellTiter-Glo luminescent cell viability (proliferation) assay, HeLa; settings: Hela (human ovarian carcinoma [sic]) proliferation, 48 hours incubation, 10% FCS
Experimental: as §1, §2, §3

SK-Br-3 = assay: CellTiter-Glo luminescent cell viability (proliferation) assay, SK-Br-3; settings: Sk-Br-3 (human breast cancer) proliferation, 48 hours incubation, 10% FCS
Experimental: as §1, §2, §3

Row | Structure (SMILES) | EC50 (HuH7; Homo sapiens, Huh-7, 48 h) | EC50 (HeLa) | EC50 (SK-Br-3) | EC50 (HuH7; Huh-7) | EC50 (DAN-G) | EC50 (CX-2)
1 | O=C(Nc1ccc(F)c([N+](=O)[O-])c1)c1csc(C2CCN(C(=O)Cc3c[nH]c4ccccc34)CC2)n1 [II] |  | 12.1 µM | 10.4 µM | 3.42 µM | 3.16 µM | > 20 µM
2 | O=C(Nc1cccc(-c2cnco2)c1)c1csc(C2CCN(C(=O)Cc3c[nH]c4ccccc34)CC2)n1 [IX] |  |  |  | 12.1 µM |  | 
3 | O=C(Nc1cc(-c2ccccc2)[nH]n1)c1csc(C2CCN(C(=O)Cc3c[nH]c4ccccc34)CC2)n1 [I] |  |  |  | 5.35 µM |  | 
4 | O=C(Nc1ccc2c(c1)OCCO2)c1csc(C2CCN(C(=O)NC3C=C(c4ccccc4)N=N3)CC2)n1 (stereo not drawn) [LII] | 19.5 µM |  |  |  |  | 
5 | Cn1nc(-c2ccccc2)cc1NC(=O)c1csc(C2CCN(C(=O)C3CCCCC3)CC2)n1 [LIV] | 5.5 µM |  |  |  |  | 
6 | O=C(Nc1ccc2c(c1)C(=O)OC2)c1csc(C2CCN(C(=O)CC3C=Nc4ccccc43)CC2)n1 (stereo not drawn) [LIX] | 7.13 µM |  |  |  |  | 
7 | Cn1nc(-c2ccccc2)cc1NC(=O)c1csc(C2CCN(C(=O)Cc3c[nH]c4ccccc34)CC2)n1 [VII] |  | 12.5 µM | 10.8 µM | 3.38 µM | 7.1 µM | > 20 µM
8 | CCOc1ccccc1N1CCN(C(=O)c2csc(C3CCN(C(=O)CC4C=Nc5ccccc54)CC3)n2)CC1 (stereo not drawn) [XII] | 13.4 µM |  |  |  |  | 
9 | Cc1csc(NC(=O)c2csc(C3CCN(C(=O)CC4C=Nc5ccccc54)CC3)n2)c1C(N)=O (stereo not drawn) [XIV] | 12.9 µM |  |  |  |  | 
10 | CS(=O)(=O)c1ccc(CNC(=O)c2csc(C3CCN(C(=O)CC4C=Nc5ccccc54)CC3)n2)cc1 (stereo not drawn) [XIX] | 8.5 µM |  |  |  |  | 

The remaining molecules from weak to strong by EC50 (HuH7; Homo sapiens, Huh-7, 48 h), led by results:

Row | EC50 (HuH7; Homo sapiens, Huh-7, 48 h) | EC50 (HeLa) | EC50 (SK-Br-3) | EC50 (HuH7; Huh-7) | Structure (SMILES) | EC50 (DAN-G) | EC50 (CX-2)
11 | 5.4 µM |  |  |  | C#CCOC(=O)N1CCC(c2nc(C(=O)Nc3[nH]nc(C)c3-c3ccccc3)cs2)CC1 [L] |  | 
12 | 5.3 µM | 10.1 µM | 12.3 µM |  | COc1ccc(NC(=O)c2csc(C3CCN(C(=O)NC4C=C(c5ccccc5)N=N4)CC3)n2)cn1 (stereo not drawn) [XIII] | 8.9 µM | > 20 µM
13 | 5.1 µM |  |  |  | C#CC1(NC(=O)c2csc(C3CCN(C(=O)CC4C=Nc5ccccc54)CC3)n2)CCCCC1 (stereo not drawn) [LVII] |  | 
14 | 4.9 µM |  |  |  | O=C(CC1C=Nc2ccccc21)N1CCC(c2nc(C(=O)N3CCN(c4ccc(Cl)c(Cl)c4)CC3)cs2)CC1 (stereo not drawn) [LI] |  | 
15 | 4.81 µM | 13.5 µM | 10.4 µM |  | CC(C)(Cc1ccc(F)cc1)NC(=O)c1csc(C2CCN(C(=O)CC3C=Nc4ccccc43)CC2)n1 (stereo not drawn) [VI] | 11.2 µM | 19.2 µM
16 | 4.74 µM |  |  |  | O=C(CC1C=Nc2ccccc21)N1CCC(c2nc(C(=O)N3CCN(c4c(Cl)cncc4Cl)CC3)cs2)CC1 (stereo not drawn) [XLIII] |  | 
17 | 4.68 µM | 8.79 µM | 10.8 µM |  | Cc1ccc2cc(NC(=O)c3csc(C4CCN(C(=O)CC5C=Nc6ccccc65)CC4)n3)ccc2n1 (stereo not drawn) [V] | 6.9 µM | > 20 µM
18 | 4.58 µM |  |  |  | CCOc1cccc(C(=O)NNC(=O)c2csc(C3CCN(C(=O)CC4C=Nc5ccccc54)CC3)n2)c1 (stereo not drawn) [LVIII] |  | 
19 | 4.04 µM |  |  |  | Cc1ccc(C(=O)NNC(=O)c2csc(C3CCN(C(=O)CC4C=Nc5ccccc54)CC3)n2)s1 (stereo not drawn) [LV] |  | 
20 | 3.76 µM | 10.3 µM | > 20 µM |  | COc1ccc(CNC(=O)c2csc(C3CCN(C(=O)CC4C=Nc5ccccc54)CC3)n2)cc1OC (stereo not drawn) [IV] | 7.52 µM | > 20 µM
21 | 3.6 µM | 10.5 µM | > 20 µM |  | COc1ccc(C(=O)N2CCC(c3nc(C(=O)Nc4cc(-c5ccco5)n[nH]4)cs3)CC2)c(OC)c1OC [LVI] | 16.9 µM | > 20 µM
22 | 2.2 µM |  |  |  | Cc1cnc(NC(=O)c2csc(C3CCN(C(=S)Nc4ccc(N(C)C)cc4)CC3)n2)s1 [XLII] |  | 
23 | 1.63 µM | 23.6 µM | 19.5 µM |  | O=C(CC1C=Nc2ccccc21)N1CCC(c2nc(C(=O)N3CCN(c4ncccn4)CC3)cs2)CC1 (stereo not drawn) [LIII] | 18.2 µM | > 20 µM
24 | 1.39 µM | 3.95 µM | 7.07 µM |  | O=C(Nc1ccc2ncccc2c1)c1csc(C2CCN(C(=O)CC3C=Nc4ccccc43)CC2)n1 (stereo not drawn) [III] | 1.99 µM | 9.3 µM
